Test results taken from article PMC12627627 (Nature Communications, 2025).
Values joined by “and” are separate entries in the source; they are usually repeats but may differ in a detail not shown here. Equal entries are not always repeated.

How the values were obtained:
RyR1 R2163C = target: T1, RyR1 R2163C (Oryctolagus cuniculus, UniProt P11716, R2163C); experiment: Time-lapse [Ca2+]ER measurement, HEK293 cells expressing RyR1 R2163C; format: cell-based; settings: for ER luminal [Ca2+] change (F/F0): Fig. 1B source data, single replicates
T1 construct: expressed in transfected cells
Description: HEK293 cells stably expressing R-CEPIA1er and RyRs (WT RyR1, RyR1-W881A, RyR1-W995A, RyR1-R2163C, and WT RyR2)[26],[27] were used in this study. Briefly, the cells were seeded at a density of 2 × 10⁴ cells/well in a 96-well black, clear-bottom plate (Corning). Doxycycline (2 µg/mL) was added 12 h after seeding, and the medium was replaced 24 h later with HEPES-buffered Krebs solution (5 mM HEPES, pH 7.4; 140 mM NaCl; 5 mM KCl; 2 mM CaCl₂; 1 mM MgCl₂; and 11 mM glucose). Fluorescence measurements were conducted using a FlexStation 3 fluorometer (Molecular Devices) at 37 °C. The R-CEPIA1er was excited at 560 nm, emitted at 610 nm, and captured every 10 seconds over 300 seconds. […] The fluorescence changes (F/F₀) were calculated by dividing the average fluorescence of the last 100 seconds (F) by that of the first 100 seconds (F₀). All measurements were performed in triplicate.

[1] = design: method as in PMID 1729917, PMID 2790379; settings: water-soluble analog compared with DAN; cited from earlier work

ER luminal [Ca2+] change (F/F0) (RyR1 R2163C; concentration 0.001 (unit not given)): 0.9854 and 0.9883 and 0.9973
ER luminal [Ca2+] change (F/F0) (RyR1 R2163C; concentration 0.01 (unit not given)): 0.9658 and 0.9819 and 0.982
ER luminal [Ca2+] change (F/F0) (RyR1 R2163C; concentration 0.05 (unit not given)): 1.099 and 1.026 and 0.9992
ER luminal [Ca2+] change (F/F0) (RyR1 R2163C; concentration 0.1 (unit not given)): 1.103 and 1.117 and 1.012
ER luminal [Ca2+] change (F/F0) (RyR1 R2163C; concentration 0.5 (unit not given)): 1.22 and 1.241 and 1.23
ER luminal [Ca2+] change (F/F0) (RyR1 R2163C; concentration 1 (unit not given)): 1.3399 and 1.372 and 1.356
ER luminal [Ca2+] change (F/F0) (RyR1 R2163C; concentration 5 (unit not given)): 1.6271 and 1.651 and 1.748
ER luminal [Ca2+] change (F/F0) (RyR1 R2163C; concentration 10 (unit not given)): 1.557 and 1.7194 and 1.724
ER luminal [Ca2+] change (F/F0) (RyR1 R2163C; concentration 50 (unit not given)): 1.618 and 1.707 and 1.756
ER luminal [Ca2+] change (F/F0) (RyR1 R2163C; concentration 100 (unit not given)): 1.541 and 1.665 and 1.689
IC50 (RyR1 R2163C; HEK293 cells stably expressing RyR1 R2163C, ER Ca2+ fluorescence, dose-dependent): 410 nM
Compound: O=C1CN(/N=C/c2ncc(-c3ccc(Br)cc3)o2)C(=O)N1 [AZU, Azumolene]
solubility relative to DAN [1]: approximately 30 fold
